Legend:
A375 (melanoma) = assay: Sulforhodamine B (SRB) assay, A375; format: cell-based; details: Homo sapiens; for IC50: A-375, 48 h, read-out: IC50 (µM) A375
Source text: (§1) Roswell Park Memorial Institute (RPMI)-1640 medium, Dulbecco’s modified eagle medium high glucose (DMEM; Gibco) supplemented with 10% Fetal Bovine Serum (FBS; Gibco, and 1% antibiotic-antimycotic (Gibco; Anti-Anti 100x), phosphate-buffered saline (PBS; Gibco), 0.25% trypsin (Gibco), sodium pyruvate (Sigma-Aldrich), HEPES (Gibco). Human cancer cell lines A549 (lung carcinoma), MCF-7 (breast carcinoma), MDAMB-231 (breast carcinoma), A375 (melanoma), and normal human embryonic kidney cells (HEK-293) were taken from Dr. Sheikh Tasduq Abdullah and Dr. Boobalan Gopu (CSIR-IIIM).
(§2) Their activity was tested against human cancer cell lines A549 (lung carcinoma), MCF-7 (breast carcinoma), MDAMB-231 (breast carcinoma), and A375 (melanoma). The selectivity index (SI) was calculated against normal human embryonic kidney cells (HEK-293) to determine cytotoxic selectivity. The cells (7 × 10^3 cells/well) were seeded on 96 well plates, followed by overnight incubation. Multiple concentrations (50 µM, 20 µM, 10 µM, 5 µM, and 1 µM) of compounds were used to treat the cells, except for control wells that contained only cells with media. After 48 h of incubation, the cells attached to wells were fixed with 50 µL of chilled 50% TCA, and the plate was kept at 4°C for 1 h, as described previously ([Malik et al., 2023]; [Kumar et al., 2024]). The plate was washed (3–4 times) with distilled water (250 µL/well) and air-dried for 24 h. The next day, 100 µL of 0.4% SRB dye was added to each well, and the cells were incubated at room temperature for 1 h. The plate contents were discarded and washed 3 times with 1% glacial acetic acid (250 µL/well), followed by one last wash with distilled water and air drying for another 24 h. Subsequently, 100 µL of Tris base (10 mM, pH 10.5) was added to each well to dissolve the dye bound to fixed cells. The dissolved dye indicating growth inhibition was quantified by calculating optical density at 540 nm via microplate reader (Tecan infinite M200PRO, Switzerland). The IC50 values were calculated using GraphPad Prism Software Version 5.0. A favorable Selectivity Index (SI) is the most relevant parameter to detect anti-cancer potential in vitro as it indicates drug safety against cancer cells versus normal cells, efficacy of the drug, and selectivity. The selectivity index is calculated by using the formula. Selective Index=IC50 in Normal cells/IC50 in Cancerous cell lines

MCF-7 (breast carcinoma) = assay: Sulforhodamine B (SRB) assay, MCF-7; format: cell-based; details: Homo sapiens, MCF7, 48 h, read-out: IC50 (µM) MCF-7
Source text: as §1, §2

[1] = tested on: MDA-MB 231 (breast carcinoma); assay: Sulforhodamine B (SRB) assay, MDA-MB 231; format: cell-based; details: Homo sapiens, MDA-MB-231, 48 h, read-out: IC50 (µM) MDA-MB 231
Source text: as §1, §2

A549 (lung carcinoma) = assay: Sulforhodamine B (SRB) assay, A549; format: cell-based; details: Homo sapiens, A549, 48 h, read-out: IC50 (µM) A549
Source text: as §1, §2

[2] = tested on: normal human embryonic kidney cells (HEK-293); assay: Sulforhodamine B (SRB) assay, normal cells HEK-293; format: cell-based; details: HEK293, 48 h, normal cell line, mean ± SD (n = 3)
Source text: as §1, §2

A375 = assay: cells; format: cell-based; details: Homo sapiens, A-375; MTT assay, 48 h
Procedure: (§3) Cell viability was assessed using the MTT assay, as outlined in previous studies ([Majeed et al., 2014]; [Amin et al., 2025]). Briefly, A549, A375, MCF-7 and MDA-MB231 cells (10 × 10^3 cells/well) were seeded in 96-well plates and incubated for 24 h at 37°C in a 5% CO2 atmosphere. After this incubation, the cells were treated with test compounds for another 48 h. At 44th hour of treatment, the cells were incubated with MTT (2.5 mg/mL) for additional 4 h. At 48th hour, DMSO was added (100 µL/well), to dissolve formazan crystals. Absorbance was measured at 570 nm. Cell viability was calculated relative to untreated controls. IC50 values were determined from independent triplicate experiments using GraphPad™ Prism 8.0 software. […]

A549 = assay: cells; format: cell-based; details: Homo sapiens, MTT assay, 48 h
Procedure: as §3

MCF-7 = assay: cells; format: cell-based; details: Homo sapiens, MCF7; MTT assay, 48 h
Procedure: as §3

MDA-MB 231 = assay: cells; format: cell-based; details: Homo sapiens, MTT assay, 48 h
Procedure: as §3

A375 cells [3] = assay: Colony formation assay; format: cell-based, human
Procedure: A colony formation assay was performed to assess the ability of 3g to inhibit the reproductive and colony forming ability of A375 cells. The cells were seeded into a 6-well plate with a 1 × 10^3 cells/well density. Next day, the cells were treated with multiple concentrations of 3g, such as 30 µM, 20 µM, 10 µM and 1 µM, in fresh media for 48 h. The media was changed on alternate days till day 10, till untreated (negative control) became confluent. On day 10, the cells were washed with PBS, and colonies were observed under a microscope. The cells/colonies were fixed with 100% methanol for 20 min at 4°C and stained with 0.5% solution of crystal violet for 30 min at room temperature, as described previously ([Kumar et al., 2024]). Subsequently, the dye was removed from plates, and excess dye was rinsed by washing it with distilled water (3–5 times), followed by air drying. The colonies were counted using ImageJ software, and photographs were taken with a digital camera. The percentage of colonies formed was calculated using the formula mentioned below. Colony formation rate (%)=Number of colonies in treatment group/Number of colonies in control group×100

A375 cells [4] = assay: Wound healing (cell scratch) assay; format: cell-based, human
Procedure: Cell scratch assay, also known as wound healing assay, was performed to evaluate the impact of 3g on migration of A375 cells. The cells were seeded into the 6-well plate with […] density. The next day, in fresh media, a horizontal scratch was administered in the 90% confluent monolayer using a sterile 200 µL tip, as described previously, with slight modification ([Kumar et al., 2024]). The cells were incubated for 48 h with multiple concentrations of 3g such as 30 µM, 20 µM, 10 µM and 1 µM. Wound healing was observed using a Digital Inverted Fluorescence Microscope (Life Technologies EVOS FLc). The percentage of wound healing was calculated as. Wound Closure (%)=[…]

mitosis cell cycle = tested on: mitosis cell cycle; design: method as in Taylor, 1965; details: concentration of 50 nM; ref Taylor, 1965; cited from earlier work

SMILES	IC50 (A375 (melanoma))	IC50 (MCF-7 (breast carcinoma))	IC50 [1]	IC50 (A549 (lung carcinoma))	IC50 [2]	also measured
CCOC(=O)C1=C(C(F)(F)C(F)(F)F)NC(=O)NC1c1c2c(c(OC)c(OC)c1OC)-c1ccc(OC)c(=O)cc1[C@H](NC(C)=O)CC2 (stereo partly drawn) [Compound 3f, Ethyl 4-((R)-7-acetamido-1,2,3,10-tetramethoxy-9-oxo-5,6,7,9-tetrahydrobenzo [a]heptalen-4-yl)-2-oxo-6-(perfluoroethyl)-1,2,3,4-tetrahydropyrimidine-5-carboxylate]	28.3 ± 2.19 µM	26.4 ± 2.79 µM	46.6 ± 0.86 µM	> 50 µM	17.8 ± 1.3 µM	
COC1=C(C(=O)C2CC2)C(c2c3c(c(OC)c(OC)c2OC)-c2ccc(OC)c(=O)cc2[C@H](NC(C)=O)CC3)NC(=O)N1 (stereo partly drawn) [Compound 3i, N-((7R)-4-(5-(cyclopropanecarbonyl)-6-methoxy-2-oxo-1,2,3,4-tetrahydropyrimidin-4-yl)-1,2,3,10-tetramethoxy-9-oxo-5,6,7,9-tetrahydrobenzo [a]heptalen-7-yl) acetamide]	> 50 µM	> 50 µM		> 50 µM	39.5 ± 1.36 µM	
CCOC(=O)C1=C(C)NC(=S)NC1c1c2c(c(OC)c(OC)c1OC)-c1ccc(OC)c(=O)cc1[C@H](NC(C)=O)CC2 (some centres unmarked) [Compound 3a]	> 50 µM	40.6 ± 0.91 µM	> 50 µM	> 50 µM	29.66 ± 0.07 µM	
CCOC(=O)C1=C(C)NC(=N)NC1c1c2c(c(OC)c(OC)c1OC)-c1ccc(OC)c(=O)cc1[C@H](NC(C)=O)CC2 (stereo partly drawn) [Compound 3b, Ethyl 4-((R)-7-acetamido-1,2,3,10-tetramethoxy-9-oxo-5,6,7,9-tetrahydrobenzo [a]heptalen-4-yl)-2-imino-6-methyl-1,2,3,4-tetrahydropyrimidine-5-carboxylate]	> 50 µM	44.7 ± 0.64 µM	> 50 µM	> 50 µM	38.3 ± 1.36 µM	
CCOC(=O)C1=C(C(Cl)(Cl)Cl)NC(=O)NC1c1c2c(c(OC)c(OC)c1OC)-c1ccc(OC)c(=O)cc1[C@H](NC(C)=O)CC2 (stereo partly drawn) [Compound 3d, Ethyl 4-((R)-7-acetamido-1,2,3,10-tetramethoxy-9-oxo-5,6,7,9-tetrahydrobenzo [a]heptalen-4-yl)-2-oxo-6-(trichloromethyl)-1,2,3,4-tetrahydropyrimidine-5-carboxylate]	> 50 µM	43.79 ± 0.33 µM	> 50 µM	> 50 µM	36.1 ± 1.79 µM	
CC(=O)O[C@H]1C(=O)[C@@]2(C)[C@H]([C@H](OC(=O)c3ccccc3)[C@]3(O)C[C@H](OC(=O)[C@H](O)[C@@H](NC(=O)c4ccccc4)c4ccccc4)C(C)=C1C3(C)C)[C@]1(OC(C)=O)CO[C@@H]1C[C@@H]2O [Paclitaxel]						IC50 (A375): 0.017 ± 0.028 µM; IC50 (A549): 0.028 ± 0.008 µM; IC50 (MCF-7): 0.014 ± 0.001 µM; IC50 (MDA-MB 231): 0.02 ± 0.002 µM
CCOC(=O)C1=C(C(F)(F)C(F)(F)F)NC(=O)NC1c1c2c(c(OC)c(OC)c1OC)-c1ccc(OC)c(=O)cc1[C@@H](NC(C)=O)CC2 (stereo partly drawn) [Compound 3g, Ethyl 4-((S)-7-acetamido-1,2,3,10-tetramethoxy-9-oxo-5,6,7,9-tetrahydrobenzo [a]heptalen-4-yl)-2-oxo-6-(perfluoroethyl)-1,2,3,4-tetrahydropyrimidine-5-carboxylate]	10.3 ± 0.56 µM	15.7 ± 0.39 µM	24.9 ± 2.7 µM	> 50 µM	15.8 ± 0.81 µM	inhibition at 20 µM (A375 (melanoma); A-375, read-out: growth inhibition): 60%; percentage of colony growth formation (A375 cells [3]; 20 µM, 48 h treatment, A375 cells, untreated control 100%): 37.5%; inhibition of colony formation (A375 cells [3]; melanoma cells (abstract)): up to 62.5%; percentage of wound closure (A375 cells [4]; 20 µM, 48 h, A375 cells, untreated control 84%): 69%; reduction of migration potential (A375 cells [4]; melanoma cells (abstract)): 69%
CCOC(=O)C1=C(c2cc(F)c(Cl)nc2Cl)NC(=O)NC1c1c2c(c(OC)c(OC)c1OC)-c1ccc(OC)c(=O)cc1[C@H](NC(C)=O)CC2 (stereo partly drawn) [Compound 3e, Ethyl 4-((R)-7-acetamido-1,2,3,10-tetramethoxy-9-oxo-5,6,7,9-tetrahydrobenzo [a]heptalen-4-yl)-6-(2,6-dichloro-5-fluoropyridin-3-yl)-2-oxo-1,2,3,4-tetrahydropyrimidine-5-carboxylate]	> 50 µM	45.1 ± 0.73 µM	> 50 µM	> 50 µM	40.3 ± 1.71 µM	
COc1c(OC)c2c(c(C3NC(=O)NC(C)=C3C(=O)Oc3ccccc3)c1OC)CC[C@@H](NC(C)=O)c1cc(=O)c(OC)ccc1-2 (stereo partly drawn) [Compound 3c, phenyl 4-((R)-7-acetamido-1,2,3,10-tetramethoxy-9-oxo-5,6,7,9-tetrahydrobenzo [a]heptalen-4-yl)-6-methyl-2-oxo-1,2,3,4-tetrahydropyrimidine-5-carboxylate]	> 50 µM	44.8 ± 0.68 µM	> 50 µM	> 50 µM	35.6 ± 2.97 µM	
CCOC(=O)C1=C(OCC)NC(=O)NC1c1c2c(c(OC)c(OC)c1OC)-c1ccc(OC)c(=O)cc1[C@H](NC(C)=O)CC2 (stereo partly drawn) [Compound 3h, ethyl 4-((R)-7-acetamido-1,2,3,10-tetramethoxy-9-oxo-5,6,7,9-tetrahydrobenzo [a]heptalen-4-yl)-6-ethoxy-2-oxo-1,2,3,4-tetrahydropyrimidine-5-carboxylate]	35.2 ± 2.79 µM	49.9 ± 2.72 µM	> 50 µM	> 50 µM	26.6 ± 2.65 µM	
COC1=C(C(=O)C2CC2)C(c2c3c(c(OC)c(OC)c2OC)-c2ccc(OC)c(=O)cc2[C@@H](NC(C)=O)CC3)NC(=O)N1 (stereo partly drawn) [Compound 3j, N-((7S)-4-(5-(cyclopropanecarbonyl)-6-methoxy-2-oxo-1,2,3,4-tetrahydropyrimidin-4-yl)-1,2,3,10-tetramethoxy-9-oxo-5,6,7,9-tetrahydrobenzo [a]heptalen-7-yl) acetamide]	> 50 µM	> 50 µM	> 50 µM	> 50 µM	39 ± 0.79 µM	
COc1cc2c(c(OC)c1OC)-c1ccc(OC)c(=O)cc1[C@@H](NC(C)=O)CC2 [Colchicine]						block of mitotic cells (mitosis cell cycle): blocks almost all the prophase, metaphase, and anaphase cells
